Test results as given in US20050148631A1, “Amino heterocyclyl inhibitors of 11-beta-hydroxy steroid dehydrogenase type 1” (AGOURON PHARMACEUTICALS, INC., priority 2003, published 2005).

Legend:
[1] = target: T1, 11β-hsd-1 enzyme (Homo sapiens, UniProt P28845); assay: 11β-hsd-1 enzyme assay, Kiapp determination (3H-cortisone to cortisol, radio-HPLC); format: biochemical; conditions: apparent Ki, 11β-hsd-1 enzyme; read-out: Ki app
[2] = target: T1, 11β-hsd-1 enzyme; assay: 11β-hsd-1 enzyme assay, percentage of inhibition (3H-cortisone to cortisol, radio-HPLC); format: biochemical; conditions: compound at 0.1 uM; read-out: % inh @ 0.1 uM

T1 sequence (P28845 whole entry, species assumed): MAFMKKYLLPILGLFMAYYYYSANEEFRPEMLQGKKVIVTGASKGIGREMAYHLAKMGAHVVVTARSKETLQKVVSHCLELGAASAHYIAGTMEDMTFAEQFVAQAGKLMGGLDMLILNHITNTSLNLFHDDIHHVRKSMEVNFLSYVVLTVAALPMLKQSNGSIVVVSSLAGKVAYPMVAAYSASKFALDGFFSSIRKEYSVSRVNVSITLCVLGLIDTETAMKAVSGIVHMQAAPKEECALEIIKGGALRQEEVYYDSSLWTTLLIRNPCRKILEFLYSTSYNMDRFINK

| Structure (SMILES) | Ki [1] | inhibition at 0.1 µM [2] |
| --- | --- | --- |
| CCS(=O)(=O)c1ccc(-c2ccc(S(=O)(=O)Nc3cccc(C)n3)c(C)c2)cc1 [Example 203] | 19 nM | 86% |
| Cc1cccc(NS(=O)(=O)c2ccc(-c3ccc(F)cc3C)cc2C)n1 [Example 204] | 10 nM | 85% |
| COc1ccc(-c2ccc(S(=O)(=O)Nc3cccc(C)n3)c(C)c2)cc1C [Example 205] | 19 nM | 86% |
| Cc1cccc(NS(=O)(=O)c2ccc(-c3ccc4c(c3)OCCO4)cc2C)n1 [Example 206] | 20 nM | 87% |
| Cc1cccc(NS(=O)(=O)c2ccc(-c3ccc(F)c(F)c3)cc2C)n1 [Example 208] | 6.7 nM | 95% |
| CCCCc1ccc(-c2ccc(S(=O)(=O)Nc3cccc(C)n3)c(C)c2)cc1 [Example 209] | 18 nM | 88% |
| Cc1cccc(NS(=O)(=O)c2ccc(-c3ccc(CC(C)C)cc3)cc2C)n1 [Example 210] | 47 nM | 74% |
| Cc1cccc(NS(=O)(=O)c2ccc(-c3ccc4c(c3)CCO4)cc2C)n1 [Example 211] | 23 nM | 81% |
| Cc1cccc(NS(=O)(=O)c2ccc(-c3ccccc3Cl)c(C)c2)n1 [Example 212] | 47 nM | 75% |
| Cc1cccc(NS(=O)(=O)c2ccc(-c3cccc(Cl)c3)c(C)c2)n1 [Example 213] | 31 nM | 77% |
| Cc1cccc(NS(=O)(=O)c2ccc(-c3ccccc3)c(C)c2)n1 [Example 214] | 36 nM | 72% |
| Cc1ccc(-c2ccc(S(=O)(=O)Nc3cccc(C)n3)cc2C)cc1 [Example 215] | 16 nM | 90% |
| COc1ccc(-c2ccc(S(=O)(=O)Nc3cccc(C)n3)cc2C)cc1 [Example 216] | 43 nM | 73% |
| Cc1cccc(NS(=O)(=O)c2ccc(-c3ccc(Cl)cc3)c(C)c2)n1 [Example 217] | 5 nM | 95% |
| Cc1cccc(NS(=O)(=O)c2ccc(-c3ccc(F)c(Cl)c3)c(C)c2)n1 [Example 219] | 17 nM | 68% |
| Cc1cccc(NS(=O)(=O)c2ccc(-c3ccc(Cl)cc3Cl)c(C)c2)n1 [Example 221] | 18 nM | 87% |
| Cc1cccc(NS(=O)(=O)c2ccc(-c3cc(Cl)cc(Cl)c3)c(C)c2)n1 [Example 222] | 10 nM | 90% |

| Structure (SMILES) | Ki [1] | inhibition at 0.1 µM [2] |
| --- | --- | --- |
| Cc1cccc(NS(=O)(=O)c2ccc(-c3ccc(CO)cc3)c(C)c2)n1 [Example 223] | 320 nM | 79% |
| Cc1cccc(NS(=O)(=O)c2ccc(-c3cccc(F)c3)c(C)c2)n1 [Example 224] | 19 nM | 93% |
| Cc1cccc(NS(=O)(=O)c2ccc(-c3cc(F)cc(F)c3)c(C)c2)n1 [Example 225] | 16 nM | 28% |
| Cc1cccc(NS(=O)(=O)c2ccc(-c3cccc(CO)c3)c(C)c2)n1 [Example 226] | 460 nM | 94% |
| Cc1cccc(NS(=O)(=O)c2ccc(-c3cc(F)c(F)c(F)c3)c(C)c2)n1 [Example 228] | 29 nM | 74% |
| CCOc1ccccc1-c1ccc(S(=O)(=O)Nc2cccc(C)n2)cc1C [Example 232] | 660 nM | 78% |
| Cc1cccc(NS(=O)(=O)c2ccc(-c3ccc(C(C)C)cc3)c(C)c2)n1 [Example 233] | 110 nM | 78% |
| Cc1cccc(NS(=O)(=O)c2ccc(-c3cccc(C(C)C)c3)c(C)c2)n1 [Example 236] | 110 nM | 81% |
| Cc1cccc(NS(=O)(=O)c2ccc(-c3cccc(F)c3F)c(C)c2)n1 [Example 238] | 27 nM | 82% |
| Cc1cccc(NS(=O)(=O)c2ccc(-c3ccc(Cl)cc3)cc2)n1 [Example 249, 4′-Chloro-biphenyl-4-sulfonic acid (6-methyl-pyridin-2-yl)-amide] | 5.8 nM | 96% |
| Cc1cccc(NS(=O)(=O)c2ccc(-c3ccc(N4CCOCC4)cc3)cc2)n1 [Example 251] | 29 nM | 83.6% |
| Cc1cccc(NS(=O)(=O)c2ccc(-c3ccc(F)cc3C)cc2)n1 [Example 253] | 33.4 nM | 79.3% |
| CCOc1ccc(-c2ccc(S(=O)(=O)Nc3cccc(C)n3)cc2)c(C)c1 [Example 254] | 22.4 nM | 85.4% |
| COc1ccc(-c2ccc(S(=O)(=O)Nc3cccc(C)n3)cc2)cn1 [Example 256] | 34.9 nM | 89.3% |
| Cc1cccc(NS(=O)(=O)c2ccc(-c3ccncc3)cc2)n1 [Example 257] | 120 nM | 74.7% |
| COc1cc(S(=O)(=O)Nc2cccc(C)n2)ccc1-c1ccc(C#N)cc1 [Example 258] | 5.9 nM | 100% |
| Cc1cccc(NS(=O)(=O)c2ccc(-c3ccc(C#N)cc3)nc2)n1 [Example 267, 6-(4-Cyano-phenyl)-pyridine-3-sulfonic acid (6-methyl-pyridin-2-yl)-amide] | 22.6 nM | 81.8% |
